Ends that are not written are not given here.
What was measured:
Experiment in all cases: In vitro HLA binding assay with purified HLA-DR molecules
HLA-DR DRB3*01:01 = HLA-DR DRB3*01:01 (Homo sapiens, UniProt P01903+P79483); conditions: purified HLA-DR molecule; high affinity binding = IC50 <1,000 nM
Protocol: (§1) In vitro binding assays with 14 of the peptides that elicited a response were performed using purified HLA-DR molecules, as previously described (Table 3) ([37]). MHC class II in silico binding predictions were defined, using the IEDB analysis resource ([38]–[40]), combining predictions from the ANN ([41], [42]) and SMM ([43]) algorithms (Supplementary Table 2A).
(§2) To test this hypothesis, we measured the in vitro capacity of the most frequently recognized EXP1 peptides to bind to a panel of 17 of the most prevalent human HLA-DR molecules, since the majority of HLA class II restricted CD4+ T cell responses are presented by these molecules ([49], [50]). Peptides with an IC50 of 1,000 nM or lower, a threshold previously found associated with the vast majority of HLA class II-restricted T cell epitopes, were considered binders to the respective DR molecule ([51]–[53]). […] These include EXP1-P14 which bound to five, EXP1-P15 to 13, EXP1-P16 to 10 and EXP1-P17 to nine different HLA molecules (Table 3).

HLA-DR DRB1*04:04 = HLA-DR DRB1*04:04 (Homo sapiens, UniProt P01903+P01911, A100R/A169T/F76Y/I96L/K127E/L162R/M171V/N62H/P40V/Q125Y/R42H/S133A/S149N/S66Y/V209L/W38E); conditions: purified HLA-DR molecule; high affinity binding = IC50 <1,000 nM
Protocol: as §1, §2

HLA-DR DRB1*04:05 = HLA-DR DRB1*04:05 (Homo sapiens, UniProt P01903+P01911, A100R/A169T/D86S/F76Y/I96L/K127E/L162R/M171V/N62H/P40V/Q125Y/R42H/S133A/S149N/S66Y/V115G/V209L/W38E); conditions: purified HLA-DR molecule; high affinity binding = IC50 <1,000 nM
Protocol: as §1, §2

HLA-DR DRB1*08:02 = HLA-DR DRB1*08:02 (Homo sapiens, UniProt P01903+P01911, A100R/A103L/A169T/F76Y/H45Y/I96F/K41T/L162R/M171V/P40S/Q125H/Q178H/Q39Y/Q99D/R218S/R42G/S66Y/V115G/W38E); conditions: purified HLA-DR molecule; high affinity binding = IC50 <1,000 nM
Protocol: as §1, §2

HLA-DR DRB1*15:01 = HLA-DR DRB1*15:01 (Homo sapiens, UniProt P01903+P01911); conditions: purified HLA-DR molecule; high affinity binding = IC50 <1,000 nM
Protocol: as §1, §2

HLA-DR DRB1*01:01 = HLA-DR DRB1*01:01 (Homo sapiens, UniProt P01903+P01911, A100R/D57E/F55L/F60I/F76Y/I96L/L162R/M171V/P40L/Q125E/R42F/V115G/Y59C); conditions: purified HLA-DR molecule; high affinity binding = IC50 <1,000 nM
Protocol: as §1, §2

HLA-DR DRB1*03:01 = HLA-DR DRB1*03:01 (Homo sapiens, UniProt P01903+P01911, A100K/A102G/A103R/A169T/F55Y/I96L/K41T/L162R/M171V/P40S/Q125H/Q178H/Q39Y/R42S/S66N/T106N/T262R/W38E/Y61H); conditions: purified HLA-DR molecule; high affinity binding = IC50 <1,000 nM
Protocol: as §1, §2

HLA-DR DRB1*04:01 = HLA-DR DRB1*04:01 (Homo sapiens, UniProt P01903+P01911, A100K/A169T/F76Y/I96L/K127E/L162R/M171V/N62H/P40V/Q125Y/R42H/S133A/S149N/S66Y/V115G/V209L/W38E); conditions: purified HLA-DR molecule; high affinity binding = IC50 <1,000 nM
Protocol: as §1, §2

HLA-DR DRB4*01:01 = HLA-DR DRB4*01:01 (Homo sapiens, UniProt P01903+P13762, G164S); conditions: purified HLA-DR molecule; high affinity binding = IC50 <1,000 nM
Protocol: as §1, §2

HLA-DR DRB1*11:01 = HLA-DR DRB1*11:01 (Homo sapiens, UniProt P01903+P01911, A100R/A169T/A87E/I96F/K41T/L162R/M171V/P40S/Q125H/Q178H/Q39Y/Q99D/R42S/S66Y/T262R/V115G/W38E); conditions: purified HLA-DR molecule; high affinity binding = IC50 <1,000 nM
Protocol: as §1, §2

HLA-DR DRB5*01:01 = HLA-DR DRB5*01:01 (Homo sapiens, UniProt P01903+Q30154); conditions: purified HLA-DR molecule; high affinity binding = IC50 <1,000 nM
Protocol: as §1, §2

HLA-DR DRB1*13:01 = HLA-DR DRB1*13:01 (Homo sapiens, UniProt P01903+P01911, A100E/A169T/K41T/L162R/M171V/P40S/Q125H/Q178H/Q39Y/Q99D/R42S/S66N/T262R/W38E/Y61H); conditions: purified HLA-DR molecule; high affinity binding = IC50 <1,000 nM
Protocol: as §1, §2

HLA-DR DRB1*09:01 = HLA-DR DRB1*09:01 (Homo sapiens, UniProt P01903+P01911, A100R/A103E/D57H/D86V/F55Y/F60I/F76Y/I96F/K127E/L162R/M171V/P40D/Q125H/Q99R/R33Q/R42F/S133A/S66N/T210M/V115G/W38K/Y107V/Y59G/Y89S)
HLA-DR DRB1*13:02 = HLA-DR DRB1*13:02 (Homo sapiens, UniProt P01903+P01911, A100E/A169T/K41T/L162R/M171V/P40S/Q125H/Q178H/Q39Y/Q99D/R42S/S66N/T262R/V115G/W38E/Y61H); conditions: purified HLA-DR molecule; high affinity binding = IC50 <1,000 nM
Protocol: as §1, §2

HLA-DR DRB1*07:01 = HLA-DR DRB1*07:01 (Homo sapiens, UniProt P01903+P01911, A100R/A102G/A103Q/D57E/D86V/E43K/F76Y/K127E/L162R/M171V/P40G/Q125H/Q99D/R33Q/R42Y/R54Q/S133A/S66F/T210M/V115G/Y107V/Y59L/Y89S); conditions: purified HLA-DR molecule; high affinity binding = IC50 <1,000 nM
Protocol: as §1, §2

HLA-DR DRB3*02:02 = HLA-DR DRB3*02:02 (Homo sapiens, UniProt P01903+P79483, A212P/D57E/F66Y/L67A/R103Q/R218S/R40L/S89Y/T80R/V86D/Y55F/Y59H); conditions: purified HLA-DR molecule; high affinity binding = IC50 <1,000 nM
Protocol: as §1, §2

HLA-DR DRB1*10:01 = HLA-DR DRB1*10:01 (Homo sapiens, UniProt P01903+P01911, A100R/A169T/D57E/F55L/F60V/F69Y/F76Y/I96L/L162R/M171V/P40V/Q260P/Q39E/Q99R/R195Q/R42F/S149N/S66Y/T210M/V115G/V67A/W38E/Y59R/Y61H); conditions: purified HLA-DR molecule; high affinity binding = IC50 <1,000 nM
Protocol: as §1, §2

HLA-DR DRB1*11:01, sequence (P01903 26-254 limits assumed, other chains not shown): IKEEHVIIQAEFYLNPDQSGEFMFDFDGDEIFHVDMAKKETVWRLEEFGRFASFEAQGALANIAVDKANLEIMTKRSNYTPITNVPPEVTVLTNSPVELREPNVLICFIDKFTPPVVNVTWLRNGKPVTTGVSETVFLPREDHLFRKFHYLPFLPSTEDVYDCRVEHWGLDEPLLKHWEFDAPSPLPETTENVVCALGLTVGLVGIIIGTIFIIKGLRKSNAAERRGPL
HLA-DR DRB1*03:01, sequence (P01903 26-254, other chains not shown): as the sequence (P01903 26-254 limits assumed, other chains not shown) above
HLA-DR DRB1*13:02, sequence (P01903 26-254 limits assumed, other chains not shown): as above
HLA-DR DRB3*02:02, sequence (P01903 26-254 limits assumed): as the sequence (P01903 26-254 limits assumed, other chains not shown) above
HLA-DR DRB3*02:02, sequence (P79483 30-266 R40L/Y55F/D57E/Y59H/F66Y/L67A/T80R/V86D/S89Y/R103Q/A212P/R218S limits assumed): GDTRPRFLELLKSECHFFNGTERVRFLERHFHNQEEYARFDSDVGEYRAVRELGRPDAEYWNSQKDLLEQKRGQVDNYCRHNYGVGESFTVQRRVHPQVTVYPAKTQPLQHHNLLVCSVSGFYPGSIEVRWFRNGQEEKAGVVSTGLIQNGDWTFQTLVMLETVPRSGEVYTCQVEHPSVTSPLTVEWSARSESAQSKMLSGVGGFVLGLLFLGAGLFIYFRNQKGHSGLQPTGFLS

Compound	IC50 (HLA-DR DRB3*01:01) [nM]	IC50 (HLA-DR DRB1*04:04) [nM]	IC50 (HLA-DR DRB1*04:05) [nM]	IC50 (HLA-DR DRB1*08:02) [nM]	IC50 (HLA-DR DRB1*15:01) [nM]	IC50 (HLA-DR DRB1*01:01) [nM]	IC50 (HLA-DR DRB1*03:01) [nM]	IC50 (HLA-DR DRB1*04:01) [nM]	IC50 (HLA-DR DRB4*01:01) [nM]	IC50 (HLA-DR DRB1*11:01) [nM]	IC50 (HLA-DR DRB5*01:01) [nM]	IC50 (HLA-DR DRB1*13:01) [nM]	IC50 (HLA-DR DRB1*09:01) [nM]	IC50 (HLA-DR DRB1*13:02) [nM]	IC50 (HLA-DR DRB1*07:01) [nM]	IC50 (HLA-DR DRB3*02:02) [nM]	IC50 (HLA-DR DRB1*10:01) [nM]
EPLIDVHDLISDMIK [EXP1-P10]	7960	1110	31000	2840	29200	6020	6770	27500	162	–	–	–	–	–	–	–	–
KEEELVEVNKRKSKY [EXP1-P13]	–	–	–	–	–	–	–	–	17900	142	1120	1190	–	–	–	–	–
VLAGLLGVVSTVLLGGV [EXP1-P17]	28500	47	824	49	5	23	–	1260	2390	13700	238	14200	12	33400	4.6	14900	418
RKSKYKLATSVLAGLL [EXP1-P15]	47	48	7.4	11900	195	1.1	5820	1.2	230	7	1	–	3.9	39000	1.4	2	1.8
VEVNKRKSKYKLATS [EXP1-P14]	13900	–	83	–	6100	2350	–	58	–	–	89	5740	77	–	8300	5840	295
NANPDADSESNGEPN [EXP1-P25]	–	12500	18200	4010	1100	19600	–	16700	12000	23200	31100	–	–	–	–	–	33600
CC[C@H](C)[C@H](NC(=O)[C@@H](NC(=O)[C@H](Cc1ccccc1)NC(=O)[C@H](Cc1ccccc1)NC(=O)[C@H](CC(C)C)NC(=O)[C@H](C)NC(=O)[C@H](CC(C)C)NC(=O)[C@H](Cc1ccccc1)NC(=O)[C@H](Cc1ccccc1)NC(=O)[C@@H](NC(=O)[C@H](CO)NC(=O)[C@H](CC(C)C)NC(=O)[C@@H](NC(=O)[C@H](CCCCN)NC(=O)[C@@H](N)CCSC)[C@@H](C)CC)C(C)C)[C@@H](C)CC)C(=O)O [EXP1-P01]	–	9130	3520	5450	3360	21400	–	5050	25200	39600	10900	3120	3590	–	9190	–	4940
LGVVSTVLLGGVGLV [EXP1-P18]	13500	806	5020	1810	300	19	–	2050	194	6630	2470	8560	491	3230	433	–	1890
GSGVSSKKKNKKGSG [EXP1-P07]	–	–	–	–	–	–	–	–	–	–	4560	1980	–	–	–	–	–
GVGLVLYNTEKGRHP [EXP1-P20]	–	9.1	2950	9.3	24	8940	4490	26	81	183	539	122	–	17100	–	4990	7970
CC(C)C[C@H](NC(=O)CNC(=O)[C@@H](NC(=O)CNC(=O)CNC(=O)[C@H](CC(C)C)NC(=O)[C@H](CC(C)C)NC(=O)[C@@H](NC(=O)[C@@H](N)[C@@H](C)O)C(C)C)C(C)C)C(=O)N[C@H](C(=O)N[C@@H](CC(C)C)C(=O)N[C@@H](Cc1ccc(O)cc1)C(=O)N[C@@H](CC(N)=O)C(=O)N[C@H](C(=O)N[C@@H](CCC(=O)O)C(=O)O)[C@@H](C)O)C(C)C [EXP1-P19]	–	20100	4950	–	219	8.6	–	2440	8280	–	1180	7440	4450	–	3950	–	34000
SVFFLALFFIIFNKE [EXP1-P02]	10600	2610	4250	2970	1550	11700	12300	4200	17400	–	6950	6460	648	–	7990	–	3990
SKKKNKKGSGEPLID [EXP1-P08]	–	–	–	30000	–	–	–	–	–	–	–	–	–	–	–	–	–
KLATSVLAGLLGVVS [EXP1-P16]	6100	454	539	1150	2270	11	10800	380	567	810	244	32400	1360	–	133	481	152

Reference: publication PMC6993587, “Detection of EXP1-Specific CD4+ T Cell Responses Directed Against a Broad Range of Epitopes Including Two Promiscuous MHC Class II Binders During Acute Plasmodium falciparum Malaria” (Frontiers in Immunology, 2020)
